IC50 data for two molecules are collected here from publication PMC8919051, “Metabolome and Whole-Transcriptome Analyses Reveal the Molecular Mechanisms Underlying Hypoglycemic Nutrient Metabolites Biosynthesis in Cyclocarya paliurus Leaves During Different Harvest Stages” (Frontiers in Nutrition, 2022).

The target of this experiment is α-amylase (EC 3.2.1.1). Put plainly: α-amylase activity kit, colorimetric at […] nm. Format: biochemical.

pIC50: −log10 of the molar value.

Consider `COc1cc(C(=O)O)ccc1O` [vanillic acid], for which the pIC50 (commonly the IC50 on a negative log10 scale, so that one unit is a factor of ten) is 3.48.
As for `O=C(/C=C/c1ccc(O)c(O)c1)O[C@@H]1C[C@@](O)(C(=O)O)C[C@@H](O)[C@@H]1O` [neochlorogenic acid], the pIC50 was 3.64.
